pIC50: −log10 of the molar value.

One data set deals with RCC4. As to the kind of experiment: XTT IC50 / viability assay, RCC4 cells. The data set is classed as cell-based, human. The following applies: Homo sapiens, RCC4, 96 h; XTT assay, four days. In short, it runs like this: (§1)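 RCC4 parental and VHL-reintroduced RCC4/VHL cells (DMEM, 10% FCS) treated with serially diluted drug for four days. Viability by XTT (0.3 mg/mL) with N-methyl dibenzopyrazine methyl sulfate, 1–2 h at 37 °C, absorbance 450 nm; IC50 by linear interpolation.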
In general terms: Formazan colour is commonly taken as a measure of viable cells.

The target of a further data set is T1, GLUT1 (Homo sapiens, UniProt P11166).
T1 construct: endogenous in cells; host or cells: RCC4 and RCC4/VHL cell lysates
T1 sequence (P11166 1-492): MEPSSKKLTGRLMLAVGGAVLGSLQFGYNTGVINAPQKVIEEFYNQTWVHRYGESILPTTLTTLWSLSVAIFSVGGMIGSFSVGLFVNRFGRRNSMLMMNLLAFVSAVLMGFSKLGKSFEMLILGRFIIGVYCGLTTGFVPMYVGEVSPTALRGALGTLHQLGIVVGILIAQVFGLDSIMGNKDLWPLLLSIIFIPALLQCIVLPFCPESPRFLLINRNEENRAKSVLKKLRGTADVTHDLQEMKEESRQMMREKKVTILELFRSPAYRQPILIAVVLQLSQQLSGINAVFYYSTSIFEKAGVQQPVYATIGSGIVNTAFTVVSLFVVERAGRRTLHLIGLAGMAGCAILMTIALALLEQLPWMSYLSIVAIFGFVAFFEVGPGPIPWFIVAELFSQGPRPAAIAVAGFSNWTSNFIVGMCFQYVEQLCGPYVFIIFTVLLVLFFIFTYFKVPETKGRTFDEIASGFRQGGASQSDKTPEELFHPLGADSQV
The experiment in a line: Affi-gel affinity binding of GLUT1 from cell lysates. The following applies: salt elution, immunoblot; for binding of GLUT1 to Affi-gel immobilized compound, RCC4 lysates: RCC4 cell lysates. Here is the method: All cells were grown in DMEM+10% FCS. ACHN and ACHN shVHL were a kind gift from George V. Thomas (UCLA). HIF overexpressing clones were described previously. Transfection of RNA oligos were performed with DnarmaFECT Reagent 1 (Dharmcon), according to manufacturer's directions. ON-TARGETplus SMART pools against HIF-1β/ARNT were purchased from Dharmacon. Glut1 was detected with anti-GLUT1 antibody from NeoMarkers/LabVision/Fisher. Pyruvate/lactate levels and hexokinase activity were both measured by fluorometric assay (BioVision and Sigma-Aldrich, respectively). ATP levels were measured by bioluminescence assay (ATP Determination Kit from Molecular Probes/Invitrogen). In vitro kinase activities were performed by Millipore KinaseProfiler. Affi-Gel 10 (BioRad) activated affinity media was coupled to analogs to generate immobilized affinity linkers.
We next wanted to investigate the differential glucose uptake between RCCs with and without VHL treated with compound 47 that subsequently lead to the selective death of VHL-deficient cells. We first examined the message levels of the two main glucose transporters, GLUT1 and GLUT2 by quantitative real-time PCR. GLUT1 is an inducible, high-affinity glucose transporter, while GLUT2 is the glucose transporter responsible for basal glucose uptake. Other family members, such as GLUT3 and GLUT4, are not expressed in renal cells. GLUT1 was highly expressed in cells lacking VHL, while cells with VHL had very low levels of GLUT1 (FIG. 3I). In contrast, GLUT2 was highly expressed in cells with wild-type VHL. Cells deficient in VHL had very low levels of GLUT2 that could barely be detected (FIG. 3J). […] In order to more directly test this, we performed binding assays to see whether compound 47 was directly interacting with GLUT1. An analog of compound 47, compound 116 was synthesized and linked to an immobilized linker (Affi-gel 10). Cell lysates from both RCC4 and RCC4/VHL were incubated with the Affi-gel-compound 47. […]
Background: A western blot detects proteins with antibodies after separation by electrophoresis.

The subject of the next data set is RCC4/VHL. The experiment in a line: XTT IC50 assay, selectivity RCC4 versus RCC4 with VHL-reintroduced. To be noted: selectivity ratio of XTT IC50 values, RCC4 vs RCC4/VHL. The format is cell-based, human. The method, boiled down: as §1

Consider `Cc1cncc(NC(=O)c2ccc(CNS(=O)(=O)c3ccc(C(C)(C)C)cc3)cc2)c1` [Example 107, 4-({[(4-tert-Butylphenyl)sulfonyl]amino}methyl)-N-(5-methyl-3-pyridinyl)benzamide], for which the melting point – broadly, the temperature of the solid-liquid transition – was in the range of 189 to 191 °C. The pIC50 (commonly the IC50 on a negative log10 scale, so that one unit is a factor of ten) in the data set on RCC4 was < 4.70.

`Cc1c(Cl)cccc1S(=O)(=O)NCc1ccc(C(=O)Nc2cccnc2)cc1` [Example 68, 4-((3-Chloro-2-methylphenylsulfonamido)methyl)-N-(pyridin-3-yl)benzamide]: the melting point was 218 to 221 °C. Further, in the data set on RCC4, the pIC50 is < 4.70.

On to `COc1ccc(NC(=O)c2ccc(CNS(=O)(=O)c3ccc(C(C)(C)C)cc3)cc2)cn1` [Example 110, 4-({[(4-tert-Butylphenyl)sulfonyl]amino}methyl)-N-(6-methoxy-3-pyridinyl)benzamide], for which the melting point was 238 to 240 °C. Further, the pIC50 in the data set on RCC4 is < 4.70.

With `Cc1cccc(Nc2nc(-c3ccnc(-c4cn(CCCCCCN)nn4)c3)cs2)c1` [4-{2-[1-(6-aminohexyl)-1H-1,2,3-triazol-4-yl]-4-pyridinyl}-N-(3-methylphenyl)-1,3-thiazol-2-amine, reference compound], the “binding of GLUT1 to Affi-gel immobilized compound, RCC4/VHL lysates” value at GLUT1 (RCC4/VHL cell lysates) is “did not bind”. On GLUT1, the “binding of GLUT1 to Affi-gel immobilized compound, RCC4 lysates” value is recorded as “did not bind”.

`CC(C)(C)c1ccc(S(=O)(=O)NCc2ccc(C(=O)Nc3cccnc3[N+](=O)[O-])cc2)cc1` [Example 116, 4-({[(4-tert-Butylphenyl)sulfonyl]amino}methyl)-N-(2-nitro-3-pyridinyl)benzamide] yielded a melting point of 191 to 193 °C. In addition, the pIC50 in the data set on RCC4 is < 4.70.

Compound `O=C(Nc1cccnc1)c1ccc(CNS(=O)(=O)c2ccccc2C(F)(F)F)cc1` [Example 15, N-(pyridin-3-yl)-4-((2-(trifluoromethyl)phenylsulfonamido)methyl)benzamide] returned a melting point of 234 to 237 °C. The pIC50 with RCC4 is < 4.70.

Turning to `COc1ccc(C(=O)NCc2ccc(C(=O)Nc3cccnc3)cc2)cc1OC` [Example 88, 3,4-Dimethoxy-N-(4-(pyridin-3-ylcarbamoyl)benzyl)benzamide], the melting point lay within 219 to 220 °C. In the data set on RCC4, the pIC50 was < 4.70.

Regarding `COCCCc1ccc(S(=O)(=O)NCc2ccc(C(=O)Nc3cccnc3)cc2)cc1` [Example 101, 4-[({[4-(3-Methoxypropyl)phenyl]sulfonyl}amino)methyl]-N-(3-pyridinyl)benzamide], the melting point was 172 to 174 °C. For the same compound, the pIC50 with RCC4 is 4.70 to 6.00.

Take `O=C(Nc1cccc2ncccc12)c1ccc(CNS(=O)(=O)c2ccccc2)cc1` [Example 7, 4-(Phenylsulfonamidomethyl)-N-(quinolin-5-yl)benzamide]: the melting point fell in the range of 198 to 201 °C. Also, in the data set on RCC4, the pIC50 was < 4.70.

For `O=C(Nc1ncccn1)c1ccc(CNS(=O)(=O)c2ccccc2)cc1` [Example 9, 4-(Phenylsulfonamidomethyl)-N-(pyrimidin-2-yl)benzamide], the melting point was in the range of 180 to 182 °C. In the data set on RCC4, the pIC50 was < 4.70.

`COC(=O)CCc1ccc(S(=O)(=O)NCc2ccc(C(=O)Nc3cccnc3)cc2)cc1` [Example 41, Methyl 3-{4-[({4-[(3-Pyridinylamino)carbonyl]benzyl}amino)sulfonyl]phenyl}propanoate]: the melting point lay in the range of 181 to 182 °C. For the same compound, the negative-log IC50 (pIC50) in the data set on RCC4 is < 4.70.

`CC(C)(C)c1ccc(S(=O)(=O)NCc2ccc(C(=O)Nc3cncc(Cl)c3)cc2)cc1` [Example 115, 4-({[(4-tert-Butylphenyl)sulfonyl]amino}methyl)-N-(5-chloro-3-pyridinyl)benzamide] had a melting point of 217 to 219 °C. The pIC50 with RCC4 is < 4.70.

`NCCOCCOCCOCCOCCOCCOCC#Cc1ccc(S(=O)(=O)NCc2ccc(C(=O)Nc3cccnc3)cc2)cc1` [Example 100, 4-[({[4-(21-Amino-4,7,10,13,16,19-hexaoxahenicos-1-yn-1-yl)phenyl]sulfonyl}amino)methyl]-N-(3-pyridinyl)benzamide]: the negative logarithm of the IC50 (pIC50) in the data set with RCC4 was 4.70 to 6.00. Moreover, the “Ratio (RCC4:RCC/VHL)” value in the data set with RCC4/VHL is given as “a (“a” reflects a ratio of RCC4/RCC-VHL+ ranging from 1 to 10)”. Also, the “binding of GLUT1 to Affi-gel immobilized compound, RCC4 lysates” value at GLUT1 is “bound”.

In turn, `O=C(Nc1cccnc1)c1ccc(CNS(=O)(=O)c2ccc([N+](=O)[O-])cc2)cc1` [Example 51, 4-((4-Nitrophenylsulfonamido)methyl)-N-(pyridin-3-yl)benzamide] came in with a melting point of 241 to 243 °C. Besides, in the data set with RCC4, the pIC50 was < 4.70.

Compound `O=C(Nc1cnc2ccccc2c1)c1ccc(CNS(=O)(=O)c2ccccc2)cc1` [Example 6, 4-(Phenylsulfonamidomethyl)-N-(quinolin-3-yl)benzamide] had a melting point of 186 to 188 °C. In addition, the pIC50 with RCC4 is < 4.70.

The compound `Cc1ccncc1NC(=O)c1ccc(CNS(=O)(=O)c2ccc(C(C)(C)C)cc2)cc1` [Example 114, 4-({[(4-tert-Butylphenyl)sulfonyl]amino}methyl)-N-(4-methyl-3-pyridinyl)benzamide] yielded a melting point of 183 to 185 °C. Besides, the pIC50 with RCC4 is < 4.70.
